Measurements reported in patent publication US7435837B2, “Dihydrobenzofuranyl alkanamine derivatives and methods for using same” (Wyeth, priority 2003, dated 2008).

Tests used:
human 5-HT2C receptor = target: T1, human 5-HT2C receptor (Homo sapiens, UniProt P28335); assay: 5-HT2C receptor-stimulated calcium mobilization (FLIPR) in CHO cells; format: cell-based; details: for Emax: CHO, read-out: 5-HT2C Function Emax (%); for Emax / 5-HT2C Function Emax (%): percentage of the response observed with a maximally effective concentration of 5-HT; for EC50: calcium mobilization, CHO cells stably expressing human 5-HT2C, read-out: 5-HT2C Function EC50;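 for all read-outs here: Fluo-3-AM fluorescence read on FLIPR every 1 s, agonist added after 10 baseline reads, response taken as peak minus lowest raw fluorescence count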
T1 sequence (P28335 33-458): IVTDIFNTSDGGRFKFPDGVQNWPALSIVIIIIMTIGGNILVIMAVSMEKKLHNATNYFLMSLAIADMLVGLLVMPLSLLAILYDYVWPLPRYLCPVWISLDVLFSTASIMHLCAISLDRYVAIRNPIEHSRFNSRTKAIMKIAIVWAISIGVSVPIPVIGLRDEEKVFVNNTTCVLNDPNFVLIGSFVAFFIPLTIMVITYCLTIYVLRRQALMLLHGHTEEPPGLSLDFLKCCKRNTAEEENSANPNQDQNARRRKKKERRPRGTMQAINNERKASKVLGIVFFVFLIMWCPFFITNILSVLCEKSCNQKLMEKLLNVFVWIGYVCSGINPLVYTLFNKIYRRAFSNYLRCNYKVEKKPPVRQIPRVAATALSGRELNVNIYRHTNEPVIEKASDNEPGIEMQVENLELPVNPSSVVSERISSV

[1] = target: T2, human 5-hydroxytryptamine-2C (h5-HT2C) receptor (Homo sapiens, UniProt P28335); assay: [125I]DOI binding to membranes of CHO cells expressing the human 5-HT2C receptor; details: [125I]DOI radioligand, CHO cell membranes, room temperature 60 min; read-out: 5-HT2C Affinity Ki
T2 construct: expressed in transfected cells; host or cells: CHO (Chinese Hamster Ovary) cells; membranes
T2 sequence (P28335 33-458): T1 sequence (P28335 33-458)

Row | SMILES | Emax (human 5-HT2C receptor) [%] | EC50 (human 5-HT2C receptor) [nM] | Ki [1] [nM] | 5-HT2C Function Emax (%) (human 5-HT2C receptor)
1 | Cc1cc2c(c(-c3ccccc3)c1)OC(CN)C2 (racemic) [Example 281, (±)-{[(5-methyl-7-phenyl-2,3-dihydro-1-benzofuran-2-yl)methyl]amine] | 90 | 35 | 3.8 | –
2 | CC(C)c1ccccc1-c1cccc2c1OC(CN)C2 (racemic) [Example 61, (±)-[7-(2-isopropylphenyl)-2,3-dihydro-1-benzofuran-2-yl]methylamine] | 30 | 1090 | 37 | –
3 | COc1ccc(Cl)cc1-c1cccc2c1OC(CN)C2 (racemic) [Example 169, (±)-{[7-(5-chloro-2-methoxyphenyl)-2,3-dihydro-1-benzofuran-2-yl]methyl}amine] | 100 | 50 | 14 | –
4 | NCC1Cc2cc(C(F)(F)F)cc(-c3ccoc3)c2O1 (racemic) [Example 341, (±)-{[7-(3-furyl)-5-(trifluoromethyl)-2,3-dihydro-1-benzofuran-2-yl]methyl}amine] | 90 | 231 | 36 | –
5 | CNCC1Cc2cc(OC)cc(-c3c(C)cccc3C)c2O1 (single isomer, unassigned; (-)) [Example 560, (−)-{[7-(2,6-dimethylphenyl)-5-methoxy-2,3-dihydro-1-benzofuran-2-yl]methyl}methylamine] | 100 | 2 | 0.35 | –
6 | Cc1cc2c(c(-c3ccccc3Cl)c1)OC(CN)C2 (racemic) [Example 286, (±)-{[7-(2-chlorophenyl)-5-methyl-2,3-dihydro-1-benzofuran-2-yl]methyl}amine] | 100 | 6 | 0.76 | –
7 | NCC1Cc2cccc(-c3ccccc3C(F)(F)F)c2O1 (single isomer, unassigned; (+)) [Example 55, (+)-1-{7-[2-(trifluoromethyl)phenyl]-2,3-dihydro-1-benzofuran-2-yl}methanamine] | – | 48 | 3 | 70
8 | CC(C)(C)c1cc(Cl)cc2c1OC(CN)C2 (single isomer, unassigned; (+)) [Example 29, (+)-1-(7-tert-butyl-5-chloro-2,3-dihydro-1-benzofuran-2-yl)methanamine] | – | 229 | 35 | 80
9 | CCc1cc2c(c(-c3ccccc3Cl)c1)OC(CN)C2 (racemic) [Example 306, (±)-{[5-ethyl-7-(2-chlorophenyl)-2,3-dihydro-1-benzofuran-2-yl]methyl}amine] | 100 | 0.64 | 0.58 | –
10 | Cc1cccc(C)c1-c1cccc2c1OC(CN)C2 (single isomer, unassigned; (-)) [Example 57, (−)-1-[7-(2,6-dimethylphenyl)-2,3-dihydro-1-benzofuran-2-yl]methanamine] | 80 | 12 | 1 | –
11 | Cc1cccc(-c2cccc3c2OC(CN)C3)c1 (single isomer, unassigned; (+)) [Example 42, (+)-1-[7-(3-methylphenyl)-2,3-dihydro-1-benzofuran-2-yl]methanamine] | 100 | 162 | 17 | –
12 | COc1ccc(C)c(-c2cc(F)cc3c2OC(CN)C3)c1 (racemic) [Example 224, (±)-{[5-fluoro-7-(5-methoxy-2-methylphenyl)-2,3-dihydro-1-benzofuran-2-yl]methyl}amine] | 70 | 455 | 18 | –
13 | Cc1cc(Cl)ccc1-c1cccc2c1OC(CN)C2 (racemic) [Example 167, (±)-{[7-(4-chloro-2-methylphenyl)-2,3-dihydro-1-benzofuran-2-yl]methyl}amine] | 90 | 21 | 3.1 | –
14 | COc1ccc(-c2cccc3c2OC(CN)C3)cc1 (single isomer, unassigned; (-)) [Example 81, (−)-1-[7-(4-methoxyphenyl)-2,3-dihydro-1-benzofuran-2-yl]methanamine] | – | 294 | 24 | 50
15 | CNCC1Cc2cccc(-c3cccc(OC)c3)c2O1 (racemic) [Example 417, (±)-[(N-methyl-1-[7-(3-methoxyphenyl)-2,3-dihydro-1-benzofuran-2-yl]methanamine] | 60 | 183 | 3.7 | –
16 | CNCC1Cc2cccc(-c3ccc(Cl)cc3)c2O1 (racemic) [Example 420, (±)-[(N-methyl-1-[7-(4-chlorophenyl)-2,3-dihydro-1-benzofuran-2-yl]methanamine] | 80 | 504 | 7 | –

Row | SMILES | Emax (human 5-HT2C receptor) [%] | EC50 (human 5-HT2C receptor) [nM] | Ki [1] [nM] | 5-HT2C Function Emax (%) (human 5-HT2C receptor)
17 | NCC1Cc2cc(Cl)cc(-c3cccc(F)c3F)c2O1 (single isomer, unassigned) [Example 246, (±)-{[5-chloro-7-(2,3-difluorophenyl)-2,3-dihydro-1-benzofuran-2-yl]methyl}amine] | – | 1490 | 23 | –
18 | NCC1Cc2cc(F)cc(-c3ccccc3C(F)(F)F)c2O1 (single isomer, unassigned; (+)) [Example 152, (+)-1-{5-fluoro-7-[2-(trifluoromethyl)phenyl]-2,3-dihydro-1-benzofuran-2-yl}methanamine] | – | 202 | 6.6 | 70
19 | NCC1Cc2cc(F)cc(-c3cccnc3)c2O1 (racemic) [Example 206, (±)-[(5-fluoro-7-pyridin-3-yl-2,3-dihydro-1-benzofuran-2-yl)methyl]amine] | 90 | 4 | 1.7 | –
20 | NCC1Cc2cc(C(F)(F)F)cc(-c3cc(Cl)ccc3Cl)c2O1 (racemic) [Example 337, (±)-{[7-(2,5-dichlorophenyl)-5-(trifluoromethyl)-2,3-dihydro-1-benzofuran-2-yl]methyl}amine] | 90 | 48 | 34 | –
21 | CNCC1Cc2cc(OC)cc(-c3ccccc3C)c2O1 (racemic) [Example 493, (±)-{[7-(2-methylphenyl)-5-methoxy-2,3-dihydro-1-benzofuran-2-yl]methyl}methylamine] | 90 | 8 | 11 | –
22 | CNCC1Cc2ccc(F)c(-c3ccccc3C)c2O1 (racemic) [Example 401, (±)-{[6-fluoro-7-(2-methylphenyl)-2,3-dihydro-1-benzofuran-2-yl]methyl}methylamine] | 90 | 0.7 | 0.38 | –
23 | NCC1Cc2ccc(F)c(-c3ccccc3Cl)c2O1 (racemic) [Example 398, (±)-{[7-(2-chlorophenyl)-6-fluoro-2,3-dihydro-1-benzofuran-2-yl]methyl}amine] | 100 | 0.1 | 0.04 | –
24 | COc1ccc(-c2cccc3c2OC(CN)C3)cc1 (racemic) [Example 79, (±)-1-[7-(4-methoxyphenyl)-2,3-dihydro-1-benzofuran-2-yl]methanamine] | 95 | 24 | 2 | –
25 | NCC1Cc2c(F)c(F)cc(-c3ccccc3)c2O1 (racemic) [Example 109, (±)-(4,5-difluoro-7-phenyl-2,3-dihydro-1-benzofuran-2-yl)methylamine] | 40 | 3220 | 25 | –
26 | COc1ccc(-c2cc(F)cc3c2OC(CN)C3)cc1 (racemic) [Example 202, (±)-{[5-fluoro-7-(4-methoxyphenyl)-2,3-dihydro-1-benzofuran-2-yl]methyl}amine] | 80 | 105 | 11 | –
27 | Cc1c(Cl)cc(C(C)C)c2c1CC(CN)O2 (racemic) [Example 21, (±)-1-(5-chloro-7-isopropyl-4-methyl-2,3-dihydro-1-benzofuran-2-yl)methanamine] | 85 | 86 | 9 | –
28 | NCC1Cc2cc(Cl)cc(-c3ccccc3Cl)c2O1 (racemic) [Example 87, (±)-1-[5-chloro-7-(2-chlorophenyl)-2,3-dihydro-1-benzofuran-2-yl]methanamine] | 90 | 20 | 0.8 | –
29 | COc1cccc(-c2cccc3c2OC(CN)C3)c1 (racemic) [Example 68, (±)-1-[7-(3-methoxyphenyl)-2,3-dihydro-1-benzofuran-2-yl]methanamine] | 90 | 144 | 5 | –
30 | COc1cccc(-c2cc(C(F)(F)F)cc3c2OC(CN)C3)c1OC (racemic) [Example 331, (±)-{[7-(2,3-dimethoxyphenyl)-5-(trifluoromethyl)-2,3-dihydro-1-benzofuran-2-yl]methyl}amine] | 80 | 271 | 38 | –
31 | Cc1cccc(C)c1-c1cc(C(F)(F)F)cc2c1OC(CN)C2 (racemic) [Example 338, (±)-{[7-(2,6-dimethylphenyl)-5-(trifluoromethyl)-2,3-dihydro-1-benzofuran-2-yl]methyl}amine] | 90 | 44 | 14 | –
32 | NCC1Cc2cccc(-c3ccccc3)c2O1 (single isomer, unassigned; (-)) [Example 38, (−)-1-(7-phenyl-2,3-dihydro-1-benzofuran-2-yl)methanamine] | 100 | 540 | 56 | –
